# Measurements as given in ChEMBL document CHEMBL4665776, “Design, synthesis and SAR study of novel C2-pyrazolopyrimidine amides and amide isosteres as allosteric integrase inhibitors” (Bioorg Med Chem Lett, 2020).
# Experiments:
# [1] = system: Human immunodeficiency virus 1; assay: Antiviral activity against wild type HIV-1 NL4-3 in human MT2 cells assessed as inhibition of viral out growth replication by HIV1 infectivity assay; assay type: functional, organism-based; conditions: Human immunodeficiency virus 1, NL4-3, MT2
# [2] = Displacement of [3H]2-tert-butoxy-2-(2-methyl-4-p-tolylquinolin-3-yl)acetic acid from LEDGF binding site of HIV1 integrase; set-up: species or system Human immunodeficiency virus 1
# [3] = system: Human immunodeficiency virus 1; assay: Antiviral activity against wild type HIV-1 NL4-3 in human MT2 cells assessed as inhibition of viral out growth replication in presence of 40 mg/ml human serum albumin by HIV1 infectivity assay; assay type: functional, organism-based; conditions: Human immunodeficiency virus 1, NL4-3, MT2
# [4] = Cytotoxicity against human MT2 cells; assay type: cell-based
# [5] = Half life in Sprague-Dawley rat at 1 mg/kg, iv; assay type: ADME, organism-based; conditions: in vivo
# [6] = Volume of distribution at steady state in Sprague-Dawley rat at 1 mg/kg, iv; assay type: ADME, organism-based; conditions: in vivo, read-out: Vdss
# [7] = system: Human immunodeficiency virus 1; assay: Antiviral activity against HIV-1 NL4-3 harboring integrase A128T mutant in human MT2 cells assessed as inhibition of viral out growth replication by HIV1 infectivity assay; assay type: functional, organism-based; conditions: Human immunodeficiency virus 1, NL4-3, MT2
# [8] = Metabolic stability in rat liver microsomes assessed as parent compound remaining at 0.5 uM incubated for 10 mins; assay type: ADME, Microsome; conditions: read-out: Stabilty
# [9] = Cmax in Sprague-Dawley rat at 1 mg/kg, iv; assay type: ADME, organism-based; set-up: route intravenous, dose 1 mg/kg; conditions: in vivo
# [10] = Clearance in Sprague-Dawley rat at 1 mg/kg, iv; assay type: ADME, organism-based; conditions: in vivo
smiles,measurement,setting,value
Cc1nc2cc(C(=O)NCC3CCOCC3)nn2c(-c2cc(F)c3c(c2C)CCCO3)c1[C@H](OC(C)(C)C)C(=O)O,EC50,[1],608 nM
same,IC50,[2],420 nM
same,EC50,[3],2660 nM
same,CC50,[4],> 40000 nM
Cc1nc2cc(C(=O)NCc3ccc(F)cc3N3CCCC3=O)nn2c(-c2cc(F)c3c(c2C)CCCO3)c1[C@H](OC(C)(C)C)C(=O)O,EC50,[1],2600 nM
same,IC50,[2],65 nM
same,EC50,[3],9470 nM
same,CC50,[4],> 40000 nM
CNC(=O)c1cc(F)ccc1CNC(=O)c1cc2nc(C)c([C@H](OC(C)(C)C)C(=O)O)c(-c3cc(F)c4c(c3C)CCCO4)n2n1,EC50,[1],3200 nM
same,IC50,[2],42 nM
same,EC50,[3],> 20000 nM
same,CC50,[4],> 40000 nM
Cc1nc2cc(C(=O)NCC3CCCCC3)nn2c(-c2cc(F)c3c(c2C)CCCO3)c1[C@H](OC(C)(C)C)C(=O)O,EC50,[1],12 nM
same,EC50,[3],342 nM
same,CC50,[4],> 40000 nM
Cc1nc2cc(C(=O)NCCN3CCOCC3)nn2c(-c2cc(F)c3c(c2C)CCCO3)c1[C@H](OC(C)(C)C)C(=O)O,EC50,[1],5920 nM
same,IC50,[2],815 nM
same,EC50,[3],11700 nM
same,CC50,[4],> 40000 nM
Cc1nc2cc(C(=O)NCc3ccc(F)c(C4CC4)c3)nn2c(-c2cc(F)c3c(c2C)CCCO3)c1[C@H](OC(C)(C)C)C(=O)O,EC50,[1],14 nM
same,IC50,[2],65 nM
same,EC50,[3],361 nM
same,CC50,[4],> 40000 nM
Cc1nc2cc(C(=O)NCc3ccc(F)cc3O)nn2c(-c2cc(F)c3c(c2C)CCCO3)c1[C@H](OC(C)(C)C)C(=O)O,EC50,[1],37 nM
same,IC50,[2],67 nM
same,EC50,[3],1520 nM
same,CC50,[4],> 40000 nM
Cc1nc2cc(C(=O)NCCC(C)C)nn2c(-c2cc(F)c3c(c2C)CCCO3)c1[C@H](OC(C)(C)C)C(=O)O,EC50,[1],18 nM
same,IC50,[2],120 nM
same,EC50,[3],122 nM
same,CC50,[4],> 40000 nM
Cc1nc2cc(C(=O)NCCC(C)(C)C)nn2c(-c2cc(F)c3c(c2C)CCCO3)c1[C@H](OC(C)(C)C)C(=O)O,EC50,[1],13 nM
same,half-life,[5],42 min
same,IC50,[2],84 nM
same,Vd,[6],0.6 L/kg
same,EC50,[7],75 nM
same,"remaining at 10 min, 0.5 µM",[8],86%
same,Cmax,[9],79 nM
same,EC50,[3],105 nM
same,clearance,[10],47 mL/min/kg
same,CC50,[4],> 40000 nM
Cc1nc2cc(-c3nc(Cc4ccc(F)cc4)no3)nn2c(-c2cc(F)c3c(c2C)CCCO3)c1[C@H](OC(C)(C)C)C(=O)O,EC50,[1],28 nM
same,IC50,[2],117 nM
same,EC50,[3],2530 nM
same,CC50,[4],> 20000 nM
Cc1nc2cc(C(=O)NCCC3CCCCC3)nn2c(-c2cc(F)c3c(c2C)CCCO3)c1[C@H](OC(C)(C)C)C(=O)O,EC50,[1],60 nM
same,IC50,[2],63 nM
same,EC50,[3],143 nM
same,CC50,[4],> 40000 nM
Cc1nc2cc(C(=O)NCc3ccc(F)cc3S(C)(=O)=O)nn2c(-c2cc(F)c3c(c2C)CCCO3)c1[C@H](OC(C)(C)C)C(=O)O,EC50,[1],118 nM
same,IC50,[2],69 nM
same,EC50,[3],6570 nM
same,CC50,[4],> 40000 nM
COc1cc(F)ccc1CNC(=O)c1cc2nc(C)c([C@H](OC(C)(C)C)C(=O)O)c(-c3cc(F)c4c(c3C)CCCO4)n2n1,EC50,[1],53 nM
same,IC50,[2],21 nM
same,EC50,[3],347 nM
same,CC50,[4],> 40000 nM
Cc1nc2cc(C(=O)NCc3ccc(F)cc3-n3cncn3)nn2c(-c2cc(F)c3c(c2C)CCCO3)c1[C@H](OC(C)(C)C)C(=O)O,EC50,[1],508 nM
same,IC50,[2],21 nM
same,EC50,[3],2600 nM
same,CC50,[4],> 40000 nM
Cc1nc2cc(C(=O)NCc3ccc(F)cc3)nn2c(-c2cc(F)c3c(c2C)CCCO3)c1[C@H](OC(C)(C)C)C(=O)O,EC50,[1],50 nM
same,IC50,[2],44 nM
same,EC50,[3],591 nM
same,CC50,[4],> 40000 nM
Cc1nc2cc(-c3ncc(Cc4ccc(F)cc4)s3)nn2c(-c2cc(F)c3c(c2C)CCCO3)c1[C@H](OC(C)(C)C)C(=O)O,EC50,[1],1 nM
same,half-life,[5],90 min
same,IC50,[2],15 nM
same,Vd,[6],3.3 L/kg
same,EC50,[7],59 nM
same,"remaining at 10 min, 0.5 µM",[8],100%
same,Cmax,[9],343 nM
same,EC50,[3],34 nM
same,clearance,[10],53 mL/min/kg
same,CC50,[4],> 20000 nM
CCCNC(=O)c1cc2nc(C)c([C@H](OC(C)(C)C)C(=O)O)c(-c3cc(F)c4c(c3C)CCCO4)n2n1,EC50,[1],262 nM
same,IC50,[2],1120 nM
same,EC50,[3],2340 nM
same,CC50,[4],> 40000 nM
CCCc1cc(CNC(=O)c2cc3nc(C)c([C@H](OC(C)(C)C)C(=O)O)c(-c4cc(F)c5c(c4C)CCCO5)n3n2)ccc1F,EC50,[1],12 nM
same,IC50,[2],108 nM
same,EC50,[3],247 nM
same,CC50,[4],> 20000 nM
COc1cc(CNC(=O)c2cc3nc(C)c([C@H](OC(C)(C)C)C(=O)O)c(-c4cc(F)c5c(c4C)CCCO5)n3n2)ccc1F,EC50,[1],20 nM
same,EC50,[3],340 nM
same,CC50,[4],> 20000 nM
CCc1cc(CNC(=O)c2cc3nc(C)c([C@H](OC(C)(C)C)C(=O)O)c(-c4cc(F)c5c(c4C)CCCO5)n3n2)ccc1F,EC50,[1],15 nM
same,IC50,[2],48 nM
same,EC50,[3],325 nM
same,CC50,[4],> 40000 nM
Cc1nc2cc(C(=O)NCCC3CCOCC3)nn2c(-c2cc(F)c3c(c2C)CCCO3)c1[C@H](OC(C)(C)C)C(=O)O,EC50,[1],173 nM
same,IC50,[2],95 nM
same,EC50,[3],1770 nM
same,CC50,[4],> 40000 nM
Cc1cc(CNC(=O)c2cc3nc(C)c([C@H](OC(C)(C)C)C(=O)O)c(-c4cc(F)c5c(c4C)CCCO5)n3n2)ccc1F,EC50,[1],15 nM
same,half-life,[5],24 min
same,IC50,[2],42 nM
same,Vd,[6],0.6 L/kg
same,EC50,[7],35 nM
same,"remaining at 10 min, 0.5 µM",[8],96%
same,Cmax,[9],7 nM
same,EC50,[3],236 nM
same,clearance,[10],58 mL/min/kg
same,CC50,[4],> 40000 nM
Cc1nc2cc(-c3ncc(-c4ccc(F)cc4)s3)nn2c(-c2cc(F)c3c(c2C)CCCO3)c1[C@H](OC(C)(C)C)C(=O)O,EC50,[1],10 nM
same,IC50,[2],195 nM
same,EC50,[3],296 nM
same,CC50,[4],> 20000 nM
Cc1nc2cc(-c3ncc(Cc4ccc(F)cc4)o3)nn2c(-c2cc(F)c3c(c2C)CCCO3)c1[C@H](OC(C)(C)C)C(=O)O,EC50,[1],6 nM
same,IC50,[2],21 nM
same,EC50,[7],56 nM
same,EC50,[3],324 nM
same,CC50,[4],> 20000 nM
